Source: patent US20060100140A1, “Combination of a) n-{5-[4-(4-methyl-piperazino-methyl)-benzoylamido]2-methylphenyl}-4- (3-pyridyl)-2-pyrimidine-amine and b) a histone deacetylase inhibitor for the treatment of leukemia” (priority 2002, published 2006)

Key:
Format in all cases: cell-based, human
K562 cells [1] = assay: Apoptosis by morphological analysis of Wright Giemsa-stained cytospin preparations; settings: for percentage of apoptotic cells: Table 2A, 2.0 μM SAHA ± 250 nM Compound I; for % of apoptotic cells: Table 5, K562: SAHA […]
Procedure: Experimental Format: Logarithmically growing cells are placed in sterile plastic T-flasks (Corning, Corning, N.Y.) to which are added the designated drugs and the flasks replaced in the incubator for intervals. At the end of the incubation period, cells are transferred to sterile centrifuge tubes, pelleted by centrifugation at 400×g for 10 min at room temperature, and prepared for analysis as described below.
(§1) Assessment of Apoptosis: After drug exposures, cytocentrifuge preparations are stained with Wright-Giemsa and viewed by light microscopy to evaluate the extent of apoptosis (i.e., cell shrinkage, nuclear condensation, formation of apoptotic bodies, etc.) as described previously (Yu et al., Nat. Rev. Cancer 1:294-202). For these studies, the percentage of apoptotic cells is determined by evaluating ≧500 cells/condition in triplicate. To confirm the results of morphological analysis, Annexin V/PI staining is used. Annexin V/PI (BD PharMingen, San Diego, Calif.) analysis of cell death is carried out as per the manufacturer's instructions. In studies involving TNF and TNF soluble receptor, both compound are combined and maintained at room temperature 20 min prior to use. For these experiments 1-2×10^5 cells per condition are harvested. Analysis is carried out using a Becton-Dickinson FACScan cytofluorometer (Mansfield, Mass.). To further confirm the morphology results, TUNEL staining is used. For TUNEL staining, cytocentrifuge preparations are obtained and fixed with 4% formaldehyde. The slides are treated with acetic acid/ethanol (1:2), stained with terminal transferase reaction mixture containing 1× terminal transferase reaction buffer (0.25 units/μl terminal transferase, 2.5 mM CoCl2, and 2 pmol fluorescein-12-dUTM; Boehringer Mannheim, Indianapolis, Ind.), and visualized using fluorescence microscopy.

[2] = test system: cytochrome c, AIF, and Smac/DIABLO; assay: Western analysis of release of cytochrome c, AIF and Smac/DIABLO into S-100 cytosolic fraction; settings: K562; Compound I (250 nM), SAHA (2.0 μM); 24 hr
phospho-JNK = assay: Western analysis of phospho-JNK in K562 cells; settings: 2.0 μM SAHA ± 250 nM Compound I, 16 hr
Procedure: (§2) Immunoblot Analysis: Immunoblotting is performed as described previously (Yu et al., Nat. Rev. Cancer 1:294-202). In brief, after drug treatment cells are pelleted by centrifugation, and lysed immediately in Laemmli buffer [1×=30 mM Tris-base (pH 6.8), 2% SDS, […] β-mercaptoethanol, and 10% glycerol], and briefly sonicated. Homogenates are quantified using Coomassie protein assay reagent (Pierce, Rockford, Ill.). Equal amounts of protein (20 μg) are boiled for 10 min, separated by SDS-PAGE (5% stacker and 10% resolving), and electroblotted to nitrocellulose membrane. After blocking in TBS-T (0.05%) and 5% milk for 1 h at 22° C., the blots are incubated in fresh blocking solution with an appropriate dilution of primary antibody for 4 h at 22° C. […]
(§3) K562 cells are treated as above, and monitored for expression of Bcl-xL, Mcl-1, and XIAP. […]

K562 cells [3] = assay: Erythroid differentiation by hemoglobin (Hgb) production; settings: 2.0 μM SAHA ± 250 nM Compound I
Description: In each case, values represent the means±S.D. for three separate experiments.

[4] = test system: Compound I-resistant K562 cells (K562R); assay: Apoptosis by Wright Giemsa-stained cytospin slides in resistant cells; settings: Table 7, 24 hr, Compound I (1.0 or 1.25 μM), SAHA (1.0 or 2.0)
Procedure: as §1, with “For TUNEL staining, cytocentrifuge preparations are obtained and fixed with 4% formaldehyde.” left out

[5] = test system: K562 cells transfected with GFP alone; assay: Apoptosis in sorted transiently transfected cells; settings: Table 8, 2.0 μM SAHA ± 250 nM Compound I for 24 hr
Procedure: as §1, with “In studies involving TNF and TNF soluble receptor, both compound are combined and maintained at room temperature 20 min prior to use. For these experiments 1-2×10^5 cells per condition are harvested. Analysis is carried out using a Becton-Dickinson FACScan cytofluorometer (Mansfield, Mass.). To further confirm the morphology results, TUNEL staining is used. For TUNEL staining, cytocentrifuge preparations are obtained and fixed with 4% formaldehyde.” left out
(§4) Transient transfections: Plasmids encoding enhanced green fluorescence protein under the transciptional control of the human cytomegalovirus (CMV) immediate-early promoter (pEGFP-C2), and HA-tagged activated MEK1 (S218D/S222D in pUSEEamp) are obtained from Clontech Laboratories (Palo Alto, Calif.) and Upstate Biotechnology (Lake Placid, N.Y.), respectively.

[6] = test system: K562 cells transfected with GFP/constitutively active MEK1/2 fusion cDNA; assay: Apoptosis in sorted transiently transfected cells; settings: Table 8; GFP/MEK; 2.0 μM SAHA ± 250 nM Compound I for 24 hr
Procedure: as §1, with “In studies involving TNF and TNF soluble receptor, both compound are combined and maintained at room temperature 20 min prior to use. For these experiments 1-2×10^5 cells per condition are harvested. Analysis is carried out using a Becton-Dickinson FACScan cytofluorometer (Mansfield, Mass.). To further confirm the morphology results, TUNEL staining is used. For TUNEL staining, cytocentrifuge preparations are obtained and fixed with 4% formaldehyde.” left out
as §4

p21^CIP1 = assay: Western analysis of p21CIP1 in K562 cells; settings: 2.0 μM SAHA ± 250 nM Compound I
Procedure: as §2, §3

| SMILES | percentage of apoptotic cells (K562 cells [1]; 0 hours) | percentage of apoptotic cells (K562 cells [1]; 6 hours) | percentage of apoptotic cells (K562 cells [1]; 12 hours) | percentage of apoptotic cells (K562 cells [1]; 18 hours) | percentage of apoptotic cells (K562 cells [1]; 24 hours) | percentage of apoptotic cells (K562 cells [1]; 48 hours) | % of apoptotic cells (K562 cells [1]; Compound I 250 nM, 24 hr) | release of cytochrome c, AIF, and Smac/DIABLO into the cytosolic S-100 cell fraction [2] | expression of phospho-JNK (JNK activation) (phospho-JNK) | also measured |
| --- | --- | --- | --- | --- | --- | --- | --- | --- | --- | --- |
| Cc1ccc(NC(=O)c2ccc(CN3CCN(C)CC3)cc2)cc1Nc1nccc(-c2cccnc2)n1 [Compound I, N-{5-[4-(4-methyl-piperazino-methyl)-benzoylamido]-2-methylphenyl}-4-(3-pyridyl)-2-pyrimidine-amine] | 0.6 ± 0.2% | 1.1 ± 0.5% | 2.1 ± 0.8% | 3.3 ± 1.0% | 3.5 ± 1.2% | 21.8 ± 3.4% | 8.3 ± 3.2% | minimal | fail to modify | apoptosis (K562 cells [1]; Table 1A, Compound I 100 nM, SAHA 0 or 2 μM, 24 hr): 1.1 ± 0.5%; apoptosis (K562 cells [1]; Table 1A, Compound I 150 nM, SAHA 0 or 2 μM, 24 hr): 1.3 ± 0.6%; apoptosis (K562 cells [1]; Table 1A, Compound I 200 nM, SAHA 0 or 2 μM, 24 hr): 1.6 ± 0.6%; apoptosis (K562 cells [1]; Table 1A, Compound I 250 nM, SAHA 0 or 2 μM, 24 hr): 2.8 ± 1.2%; apoptosis (K562 cells [1]; Table 1B, SAHA 0 μM, Compound I 250 nM, 24 hr): 2.7 ± 1.2%; Compound I + SB % of apoptotic cells (K562 cells [1]; Table 6, K562, 24 hr, sodium butyrate (SB; 1 or 2 mM), Compound I concentration not given): 10.3 ± 3.6%; cell death (K562 cells [1]; sensitive K562, Compound I (1.0 or 1.25 μM) for 48 hr, data not shown): ~100% |
| O=C(CCCCCCC(=O)Nc1ccccc1)NO [SAHA, suberoylanilide hydroxamic acid] | 0.6 ± 0.2% | 0.9 ± 0.2% | 1.7 ± 0.5% | 2.3 ± 0.8% | 3.5 ± 1.1% | 14.8 ± 2.1% | 6.6 ± 3.8% | minimal | fail to modify | apoptosis (K562 cells [1]; Table 1B, SAHA 1 μM, Compound I 0 or 250 nM, 24 hr): 0.8 ± 0.4%; apoptosis (K562 cells [1]; Table 1B, SAHA 1.5 μM, Compound I 0 or 250 nM, 24 hr): 1.6 ± 0.7%; apoptosis (K562 cells [1]; Table 1B, SAHA 2.0 μM, Compound I 0 or 250 nM, 24 hr): 2.7 ± 0.7%; apoptosis (K562 cells [1]; Table 1B, SAHA 3.0 μM, Compound I 0 or 250 nM, 24 hr): 28.4 ± 3.2%; apoptosis (K562 cells [1]; Table 1B, SAHA […], Compound I 0 or 250 nM, 24 hr): 14.5 ± 1.3%; increase in Hgb production (K562 cells [3]; 24-hr exposure): ~50%; Hgb production (K562 cells [3]; 48 hr, data not shown): substantial increases; Compound I + SAHA % of apoptotic cells [4]: 6.8 ± 3.5%; apoptosis [5]: 22.5 ± 2.6%; apoptosis [6]: 19.8 ± 2.1%; induction of p21^CIP1 (p21^CIP1): robust induction |
